Experimental findings from the SangsterLogP compilation are described below.

The nature of series [1]: method code SF-AS, from DOI: 10.1080/01483919008048971. To be noted: pH 5.0.

`CC1c2nc3ccccc3c(=O)n2CN1c1ccccc1` (stereo not given) had a logP of 1.78. As to `CCCCN1Cn2c(nc3ccccc3c2=O)C1C` (stereo not given), in series [1], the logD was determined as 1.6.

With `CC1c2nc3ccccc3c(=O)n2CN1Cc1ccccc1` (stereo not given), the log partition coefficient (logP) is 1.74. The compound `CCN1Cn2c(nc3ccccc3c2=O)C1C` (stereo not given) registered a logD in series [1] of 1.02. The same measure, in the same setting: under `CC1c2nc3ccccc3c(=O)n2CN1CCO` (stereo not given) stands 0.46. For `COc1ccc(N2Cn3c(nc4ccccc4c3=O)C2C)cc1` (stereo not given), the logP stood at 1.73.

As to `Cc1ccc(N2Cn3c(nc4ccccc4c3=O)C2C)cc1` (stereo not given), the logP was found to be 2.16. With `CCCN1Cn2c(nc3ccccc3c2=O)C1C` (stereo not given), the log distribution coefficient (logD) in series [1] was 1.4. The compound `CC1c2nc3ccccc3c(=O)n2CN1CCc1ccccc1` (stereo not given) had a logP of 1.8. In series [1], `CC1c2nc3ccccc3c(=O)n2CN1C` (stereo not given) came in with a logD of 0.85.
